From article PMC3522777 (Nature chemical biology, 2012)

Experiments:
[1] = target: T1, dihydroceramide desaturase-1 (DES1) (Gallus gallus, UniProt Q5F3C1); format: biochemical
T1 sequence (Q5F3C1 1-323): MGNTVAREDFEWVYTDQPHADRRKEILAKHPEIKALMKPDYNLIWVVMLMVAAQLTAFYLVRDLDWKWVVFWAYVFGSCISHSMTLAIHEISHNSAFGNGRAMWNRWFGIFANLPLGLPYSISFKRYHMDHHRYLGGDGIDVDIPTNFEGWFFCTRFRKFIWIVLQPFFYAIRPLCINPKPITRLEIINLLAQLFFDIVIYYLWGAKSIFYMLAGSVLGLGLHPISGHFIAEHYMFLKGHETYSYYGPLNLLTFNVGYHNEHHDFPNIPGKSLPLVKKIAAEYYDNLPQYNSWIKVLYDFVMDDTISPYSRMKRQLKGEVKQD

[2] = target: DES1 (Homo sapiens, UniProt O15121); test: retinol isomerase assay in homogenates of transfected […] cells, HPLC; format: cell-based
Chain of DES1 (O15121 2-323): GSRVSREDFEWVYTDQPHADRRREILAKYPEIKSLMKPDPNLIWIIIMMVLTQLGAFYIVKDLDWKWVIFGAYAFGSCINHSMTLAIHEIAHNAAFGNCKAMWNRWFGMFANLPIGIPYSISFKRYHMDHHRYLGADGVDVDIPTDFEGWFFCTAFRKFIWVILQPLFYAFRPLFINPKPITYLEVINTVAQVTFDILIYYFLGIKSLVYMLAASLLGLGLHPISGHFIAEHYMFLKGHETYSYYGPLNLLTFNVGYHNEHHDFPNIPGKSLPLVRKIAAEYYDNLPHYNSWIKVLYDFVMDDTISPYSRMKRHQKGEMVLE

[3] = target: T1, dihydroceramide desaturase-1 (DES1); test: retinol isomerase assay with purified GST-DES1, HPLC of products; format: biochemical

Structure (SMILES) | Ki [1] [µM] | retinol isomerase assay in homogenates of transfected 293T cells, HPLC [2] | retinol isomerase assay with purified GST-DES1, HPLC of products [3]
CC1=C(/C=C/C(C)=C/C=C/C(C)=C/C(=O)Nc2ccc(O)cc2)C(C)(C)CCC1 [4-HPR, fenretinide] | 8.5 |  | 
CC1=C(/C=C/C(C)=C/C=C/C(C)=C/CO)C(C)(C)CCC1 [all-trans-ROL, all-trans-retinol] |  | The rate of 11-cis-ROL synthesis was dramatically higher for DES1 versus the other membrane desaturases | Purified GST-DES1 exhibited dramatically higher isomerase-2 activities
